Laboratory results published in ChEMBL document CHEMBL4325857, “Discovery and synthesis of tetrahydropyrimidinedione-4-carboxamides as endothelial lipase inhibitors” (Bioorg Med Chem Lett, 2018).
Values belong to the molecule of their own block, whether it stands above or below them.

What was measured:
[1] = Permeability of compound at pH 7.4 by PAMPA; format: ADME; details: read-out: permeability
[2] = target: T1, Endothelial lipase (Homo sapiens, UniProt Q9Y5X9); assay: Inhibition of endothelial lipase (unknown origin) using D31-POPC-HDL as substrate after 2 hrs in presence of human serum by LC/MS analysis
T1 sequence (Q9Y5X9 whole entry): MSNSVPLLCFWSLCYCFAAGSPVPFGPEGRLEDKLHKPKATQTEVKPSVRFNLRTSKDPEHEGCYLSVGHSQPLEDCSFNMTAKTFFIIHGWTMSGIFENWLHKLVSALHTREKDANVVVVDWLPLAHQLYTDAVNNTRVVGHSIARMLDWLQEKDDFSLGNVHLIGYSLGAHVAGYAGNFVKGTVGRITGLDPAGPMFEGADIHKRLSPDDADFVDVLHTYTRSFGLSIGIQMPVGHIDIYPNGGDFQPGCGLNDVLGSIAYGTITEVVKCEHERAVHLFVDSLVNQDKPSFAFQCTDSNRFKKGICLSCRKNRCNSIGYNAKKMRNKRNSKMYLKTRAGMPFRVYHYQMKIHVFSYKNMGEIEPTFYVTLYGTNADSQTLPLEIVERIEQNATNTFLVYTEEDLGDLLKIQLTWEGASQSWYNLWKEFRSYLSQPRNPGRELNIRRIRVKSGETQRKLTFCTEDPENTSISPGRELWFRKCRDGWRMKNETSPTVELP

[3] = Metabolic stability in mouse liver microsomes assessed as parent compound remaining after 10 mins; format: ADME, Microsome; details: read-out: Stability
[4] = Unbound plasma concentration in mouse at 1 mg/kg, iv; format: ADME, organism-based
[5] = AUC in mouse at 1 mg/kg, iv; format: ADME, organism-based; details: in vivo
[6] = Permeability of compound at pH 5.5 by PAMPA; format: ADME; details: read-out: permeability
[7] = target: T1, Endothelial lipase; assay: Inhibition of recombinant human endothelial lipase expressed in African green monkey COS7 cells using HDL as substrate pretreated for 10 mins followed by substrate addition and measured after 30 mins by LC/MS/MS analysis
[8] = Half life in mouse at 1 mg/kg, iv; format: ADME, organism-based; details: in vivo
[9] = Bioavailability in mouse at 1 mg/kg, […]; format: ADME, organism-based; details: in vivo
[10] = AUC in mouse at 1 mg/kg, po; format: ADME, organism-based; details: in vivo
[11] = Oral bioavailability in mouse at 1 mg/kg; format: ADME, organism-based; details: in vivo

Compound: CCN1CC(C(=O)NC(C)CCc2ccc(Cl)c(Cl)c2)=C(O)C1=O (stereo not drawn)
- Papp [1]: 3.5 ×10⁻⁶ cm/s
- IC50 [2]: > 476 µM
- remaining at 10 min [3]: 92%
- fraction unbound [4]: 0.023
- AUC [5]: 300 µM·h
- Papp [6]: 50.8 ×10⁻⁶ cm/s

Compound: O=C(N[C@H]1CC[C@@H](c2ccccc2)CC1)c1[nH]c(=O)[nH]c(=O)c1O
- Papp [1]: 1.2 ×10⁻⁶ cm/s
- IC50 [7]: 0.026 µM
- IC50 [2]: 25 µM
- half-life [8]: 1.1 h
- remaining at 10 min [3]: 100%
- fraction unbound [4]: 0.15
- AUC [5]: 5.5 µM·h
- Papp [6]: 42.7 ×10⁻⁶ cm/s

Compound: CO[C@]1(c2ccc(F)cc2)CC[C@@H](NC(=O)c2[nH]c(=O)[nH]c(=O)c2N)CC1
- IC50 [7]: 1.01 µM

Compound: O=C(N[C@H]1CC[C@@H](c2ccccc2)CC1)c1[nH]c(=O)[nH]c(=O)c1NC1CCCC1
- IC50 [7]: 0.156 µM
- IC50 [2]: 436 µM

Compound: O=C(N[C@H]1CC[C@@H](c2ccccc2)CC1)c1[nH]c(=O)n(Cc2ccccc2)c(=O)c1O
- Papp [1]: 15.8 ×10⁻⁶ cm/s
- IC50 [7]: 0.117 µM
- IC50 [2]: 32 µM
- Papp [6]: 27.7 ×10⁻⁶ cm/s

Compound: CC(C)Cn1c(=O)[nH]c(C(=O)N[C@H]2CC[C@@H](c3ccccc3)CC2)c(O)c1=O
- IC50 [7]: 0.059 µM
- IC50 [2]: 48 µM
- remaining at 10 min [3]: 100%

Compound: Nc1c(C(=O)N[C@H]2CC[C@@H](c3ccccc3)CC2)n(-c2ccccc2)c(=O)[nH]c1=O
- IC50 [7]: 2.35 µM

Compound: O=C(N[C@H]1CC[C@@H](c2ccccc2)CC1)c1[nH]c(=O)n(CCO)c(=O)c1O
- IC50 [7]: 0.08 µM
- IC50 [2]: > 143 µM

Compound: CCN1CC(C(=O)N[C@H]2CC[C@@H](c3ccccc3)CC2)=C(O)C1=O
- IC50 [7]: 0.082 µM

Now from value to molecule:

- IC50 [7]: 0.091 µM
Compound: Nc1c(C(=O)N[C@H]2CC[C@@H](c3ccccc3)CC2)[nH]c(=O)[nH]c1=O

- IC50 [7]: 0.175 µM
- IC50 [2]: 231 µM
Compound: Nc1c(C(=O)N[C@@H]2CC[C@H](c3ccccc3)C2)[nH]c(=O)[nH]c1=O

- Papp [1]: 76.8 ×10⁻⁶ cm/s
- IC50 [7]: 0.017 µM
- IC50 [2]: 80 µM
- remaining at 10 min [3]: 85%
Compound: Nc1c(C(=O)N[C@@H]2CCc3cc(OCc4ccccc4)ccc32)[nH]c(=O)[nH]c1=O

- IC50 [7]: 0.021 µM
- IC50 [2]: 35 µM
- remaining at 10 min [3]: 85%
Compound: Nc1c(C(=O)N[C@H]2CC[C@@H](c3ccc(OCc4ccccc4)cc3)CC2)[nH]c(=O)[nH]c1=O

- IC50 [7]: 0.218 µM
- IC50 [2]: > 952 µM
Compound: Nc1c(C(=O)N[C@H]2CC[C@@H](c3ccccc3)C2)[nH]c(=O)[nH]c1=O

- Papp [1]: 71.2 ×10⁻⁶ cm/s
- IC50 [7]: 0.049 µM
- bioavailability [9]: 55%
- AUC [10]: 79 µM·h
- IC50 [2]: 81 µM
- half-life [8]: 6.7 h
- remaining at 10 min [3]: 79%
- fraction unbound [4]: 0.015
- AUC [5]: 140 µM·h
- bioavailability [11]: 55%
- Papp [6]: 96 ×10⁻⁶ cm/s
Compound: Nc1c(C(=O)N[C@@H]2CCCc3c(OCc4ccccc4)cccc32)[nH]c(=O)[nH]c1=O

- Papp [1]: 32.2 ×10⁻⁶ cm/s
- IC50 [7]: 0.05 µM
- IC50 [2]: 76 µM
- half-life [8]: 1.4 h
- remaining at 10 min [3]: 92%
- AUC [5]: 11 µM·h
- Papp [6]: 28.9 ×10⁻⁶ cm/s
Compound: Nc1c(C(=O)N[C@@H]2CC[C@H](c3ccccc3)c3ccccc32)[nH]c(=O)[nH]c1=O
